In patent US12498382B2, “Biomarkers for vitiligo” (INCYTE CORPORATION, priority 2019, dated 2025):

Test system: HaCaT cells
Test: Concentrations of inflammatory mediators produced by HaCaT cells stimulated with TNFα and IFNγ in presence/absence of JAK inhibitors (ProCarta)
Assay type: cell-based, human
Experimental: After 48 hours, cell culture media was removed from 24 well plates and replaced with 250 uL of media containing serial diluted drug, then incubated for 15 minutes at 37° C./5% CO2. […] The final concentration of Recombinant Human Interferon gamma and Recombinant Human Tumor Necrosis Factor alpha was 25 ng/mL of each cytokine. Cytokine stimulation added to wells containing drug brought the final concentrations for each drug treatment to 25 nM, 50 nM, 100 nM, and 200 nM. Treated plates were mixed by gentle agitation for 30 seconds then incubated for 24 hours at 37° C./5% CO2. At the end of the 24 hour incubation media was immediately removed from each plate.
Media was incubated with antibody conjugated beads designed to bind to the epitopes of specific target proteins and identify the bound protein through the bead's distinctive spectral pattern. Biotinylated detection antibodies, designed to bind to different epitopes of the same target proteins, and Streptavidin-PE are added to assay plates to quantify the amount of the target proteins. Assay plates were read on the Luminex 200 and data were expressed as Net Median Fluorescence Intensity. […] The concentration of each protein was extrapolated from the antigen standard curve and concentrations were expressed as pg/mL (Table 15).

[1] = TNFα 25 ng/mL + IFNγ 25 ng/mL, drug 25 nM
[2] = TNFα 25 ng/mL + IFNγ 25 ng/mL, drug 50 nM
[3] = TNFα 25 ng/mL + IFNγ 25 ng/mL, drug 100 nM
[4] = TNFα 25 ng/mL + IFNγ 25 ng/mL, drug 200 nM

Cc1n[nH]c(C)c1-c1cnn(C2(CC#N)CN(c3cc(F)c(C(=O)N[C@@H](C)C(F)(F)F)cc3F)C2)c1 [Cpc C]
BDNF concentration [1]: 4.01 ± 0.19 pg/mL
EGF concentration [1]: 1.54 ± 0.13 pg/mL
Eotaxin concentration [1]: 10.08 ± 0.15 pg/mL
FGF-2 concentration [1]: 21.41 ± 1.39 pg/mL
GM-CSF concentration [1]: 130 ± 3.15 pg/mL
GRO alpha concentration [1]: 548.93 ± 27.91 pg/mL
HGF concentration [1]: 13.66 ± 0.51 pg/mL
IFN alpha concentration [1]: 0.25 ± 0.01 pg/mL
bNGF concentration [1]: 7.86 ± 0.56 pg/mL
BDNF concentration [2]: 4 ± 0.23 pg/mL
EGF concentration [2]: 1.14 ± 0.17 pg/mL
Eotaxin concentration [2]: 9.84 ± 0.25 pg/mL
FGF-2 concentration [2]: 20.77 ± 1.37 pg/mL
GM-CSF concentration [2]: 126.18 ± 3.4 pg/mL
GRO alpha concentration [2]: 544.74 ± 37.71 pg/mL
HGF concentration [2]: 13.04 ± 0.28 pg/mL
IFN alpha concentration [2]: 0.26 ± 0 pg/mL
bNGF concentration [2]: 6.86 ± 0.6 pg/mL
BDNF concentration [3]: 4.24 ± 0.26 pg/mL
EGF concentration [3]: 1.35 ± 0.18 pg/mL
Eotaxin concentration [3]: 9.89 ± 0.22 pg/mL
FGF-2 concentration [3]: 20.84 ± 1.31 pg/mL
GM-CSF concentration [3]: 134.94 ± 4.45 pg/mL
GRO alpha concentration [3]: 575.98 ± 43.22 pg/mL
HGF concentration [3]: 13.53 ± 0.5 pg/mL
IFN alpha concentration [3]: 0.26 ± 0 pg/mL
bNGF concentration [3]: 6.93 ± 1.04 pg/mL
BDNF concentration [4]: 3.97 ± 0.22 pg/mL
EGF concentration [4]: 1.46 ± 0.17 pg/mL
Eotaxin concentration [4]: 9.89 ± 0.21 pg/mL
FGF-2 concentration [4]: 20.93 ± 1.37 pg/mL
GM-CSF concentration [4]: 132.6 ± 3.95 pg/mL
GRO alpha concentration [4]: 560.99 ± 43.32 pg/mL
HGF concentration [4]: 13.6 ± 0.53 pg/mL
IFN alpha concentration [4]: 0.26 ± 0 pg/mL
bNGF concentration [4]: 5.7 ± 0.76 pg/mL
BDNF concentration (no stimulation, drug 200 nM): 5.7 ± 0.31 pg/mL
EGF concentration (no stimulation, drug 200 nM): 1.12 ± 0.14 pg/mL
Eotaxin concentration (no stimulation, drug 200 nM): 2.28 ± 0.07 pg/mL
FGF-2 concentration (no stimulation, drug 200 nM): 8.77 ± 0.79 pg/mL
GM-CSF concentration (no stimulation, drug 200 nM): 9.48 ± 1.48 pg/mL
GRO alpha concentration (no stimulation, drug 200 nM): 236.87 ± 11.04 pg/mL
HGF concentration (no stimulation, drug 200 nM): 4.74 ± 0.47 pg/mL
IFN alpha concentration (no stimulation, drug 200 nM): 0.2 ± 0.03 pg/mL
IFN gamma concentration (no stimulation, drug 200 nM): 3.81 ± 0.74 pg/mL
bNGF concentration (no stimulation, drug 200 nM): 3.73 ± 0.63 pg/mL

CC(O)c1nc2cnc3ccsc3c2n1C1CCC(CC#N)OC1 (centres unmarked) [Cpc D]
BDNF concentration [1]: 4.08 ± 0.26 pg/mL
EGF concentration [1]: 1.49 ± 0.14 pg/mL
Eotaxin concentration [1]: 9.82 ± 0.2 pg/mL
FGF-2 concentration [1]: 22.89 ± 1.39 pg/mL
GM-CSF concentration [1]: 126.24 ± 3.53 pg/mL
GRO alpha concentration [1]: 539.42 ± 38.03 pg/mL
HGF concentration [1]: 13.47 ± 0.45 pg/mL
IFN alpha concentration [1]: 0.26 ± 0.01 pg/mL
bNGF concentration [1]: 7.44 ± 0.63 pg/mL
BDNF concentration [2]: 3.97 ± 0.25 pg/mL
EGF concentration [2]: 1.31 ± 0.19 pg/mL
Eotaxin concentration [2]: 9.58 ± 0.21 pg/mL
FGF-2 concentration [2]: 20.96 ± 1.43 pg/mL
GM-CSF concentration [2]: 124.89 ± 3.37 pg/mL
GRO alpha concentration [2]: 555.54 ± 44.74 pg/mL
HGF concentration [2]: 13.27 ± 0.45 pg/mL
IFN alpha concentration [2]: 0.26 ± 0 pg/mL
bNGF concentration [2]: 6.17 ± 0.74 pg/mL
BDNF concentration [3]: 4.18 ± 0.28 pg/mL
EGF concentration [3]: 1.23 ± 0.16 pg/mL
Eotaxin concentration [3]: 10.02 ± 0.19 pg/mL
FGF-2 concentration [3]: 21.77 ± 1.51 pg/mL
GM-CSF concentration [3]: 133.19 ± 3.97 pg/mL
GRO alpha concentration [3]: 578.28 ± 48.32 pg/mL
HGF concentration [3]: 13.75 ± 0.4 pg/mL
IFN alpha concentration [3]: 0.26 ± 0 pg/mL
bNGF concentration [3]: 7.12 ± 0.8 pg/mL
BDNF concentration [4]: 4.03 ± 0.28 pg/mL
EGF concentration [4]: 1.45 ± 0.17 pg/mL
Eotaxin concentration [4]: 9.85 ± 0.17 pg/mL
FGF-2 concentration [4]: 20.96 ± 1.34 pg/mL
GM-CSF concentration [4]: 130.42 ± 3.44 pg/mL
GRO alpha concentration [4]: 564.53 ± 52.35 pg/mL
HGF concentration [4]: 13.8 ± 0.48 pg/mL
IFN alpha concentration [4]: 0.25 ± 0.02 pg/mL
bNGF concentration [4]: 6.73 ± 0.61 pg/mL
BDNF concentration (no stimulation, drug 200 nM): 5.66 ± 0.38 pg/mL
EGF concentration (no stimulation, drug 200 nM): 1.24 ± 0.09 pg/mL
Eotaxin concentration (no stimulation, drug 200 nM): 2.08 ± 0.07 pg/mL
FGF-2 concentration (no stimulation, drug 200 nM): 8.19 ± 1.07 pg/mL
GM-CSF concentration (no stimulation, drug 200 nM): 8.49 ± 1.84 pg/mL
GRO alpha concentration (no stimulation, drug 200 nM): 234.42 ± 14.21 pg/mL
HGF concentration (no stimulation, drug 200 nM): 3.68 ± 0.39 pg/mL
IFN alpha concentration (no stimulation, drug 200 nM): 0.22 ± 0.03 pg/mL
IFN gamma concentration (no stimulation, drug 200 nM): 4.52 ± 0.68 pg/mL
bNGF concentration (no stimulation, drug 200 nM): 3.47 ± 0.48 pg/mL
